Reference: PMC11982498 (Redox Biology, 2025)
pKd: −log10 of the molar value.

Tests used:
[1] = system: BCL-2(G4) (DNA, G4) AGGGGCGGGCGCGGGAGGAAGGGGGCGGGAGCGGGGCTG; assay: ESI-MS; conditions: K+ 100 mM KCl plus potassium phosphate; BPES buffer, pH 7.4; no adduct peak
[2] = target: BCL-2 gene promoter i-motif; assay: SPR binding to BCL-2 promoter i-motif; conditions: MES buffer pH 5.5, 25 °C
Description: SPR measurement was performed on a ProteOn XPR36 protein interaction array system (Bio-Rad Laboratories, Hercules, California, USA) using a Neutravidin-coated GLH sensor chip. BCL-2 i-motif binding analysis was performed following a published method without significant modification. For immobilization, 5′-biotin-labeled DNA oligomers at 800 nM annealed in 1 × MES buffer at pH 5.5 by heating at 95 °C for 5 min, were attached to a reptavidin-coated sensor chip. Compounds were prepared through serial dilution with flowing buffer (20 mM MES, 100 mM KCl, pH 5.5 for i-motif) in at least 6 concentrations, which were simultaneously injected at a flow rate of […] for a 120 s of association phase, followed by 250 s of dissociation phase at 25 °C. Langmuir model was used for fitting kinetic data, which was analyzed with ProteOn manager software. KD values were determined through equation KD = kd/ka. Compound A22 was used as a positive control, and other compounds were selected as candidates only if their KD values for binding to BCL-2 i-motif were similar to that of A22.

[3] = system: BCL-2 promoter i-motif; assay: CD melting experiment, BCL-2 i-motif; type: binding; conditions: BPES buffer pH 5.5; 20 equivalents (20 μM) compound
Description: CD-melting experiment was carried out following a published method without significant modification. BCL-2 promoter i-motif and G-quadruplex structures at a concentration of 5 μM were annealed in buffer at 95 °C for 10 min, and then cooled to room temperature. The annealed samples were incubated with B14 for 6 h, and then molar ellipticity at 287 nm for i-motif structure or 260 nm for G-quadruplex structure, where the CD value was the highest in our experiment, was measured over a temperature range of 20–90 °C at a heating rate of 0.5 °C/min. Tm values were determined and calculated through nonlinear regression curve fitting with software GraphPad Prism 9.0. (GraphPad Software Inc., California, USA).
Figure S6. CD melting experiments were performed to examine the effects of B14 and A22 on BCL-2 promoter i-motif and G-quadruplex. (A-H) CD melting experiments were performed for BCL-2 promoter i-motif or G-quadruplex in the absence or presence of B14 (2, 5, 20 equivalents) and A22 (20 equivalents). The oligonucleotide for BCL-2 i-motif was annealed in 1 X BPES buffer at pH 5.5, while the oligonucleotide for BCL-2 G-quadruplex was annealed in 20 mM Tris-HCl buffer with 20 mM NaCl at pH 7.4. The ΔTm values for the effects of B14 and A22 on BCL-2 promoter i-motif were determined to be 11.26 °C and 11.82 °C, respectively. […]

[4] = system: RET promoter i-motif; assay: TO displacement assay, RET i-motif; type: binding
Description: (§1) DNA oligonucleotides were diluted to 1 μM with 1 × PBES buffer at pH 5.5, annealed at 95 °C for 10 min, cooled to room temperature, and stored at 4 °C for future use. TO dye (1 μM) was added to the DNA solution followed with incubation for 1 h. The spectra of 100 μL mixture with addition of different equivalent compounds at 25 °C were recorded based on fluorescence emission (λex = 480 nm).
(§2) TO displacement ratio (%) = (F0 − FC) / (F0 − FB) * 100.
(§3) F0 and FC were the fluorescence intensity of TO at 536 nm with DNA before and after adding compounds, respectively. FB was the fluorescence intensity of TO at 536 nm with buffer only.

[5] = system: RB promoter i-motif; assay: TO displacement assay, RB i-motif; type: binding
Description: as §1, §2, §3

[6] = system: SH-SY5Y cells; assay: FITC Annexin V/PI cell apoptosis analysis in Aβ1-42 model; type: cell-based; conditions: 25 μM Aβ1-42 induced model
Description: The FITC Annexin V/PI apoptosis analysis was conducted using the FITC Annexin V/PI Apoptosis Detection Kit (Muti sciences, 70-AP101-100). Cells were treated with varying concentrations of B14 in a 6-well plate containing a cell model induced with 25 μM Aβ1-42. After digestion and resuspension in 500 μL binding buffer, samples were incubated with 5 μL of FITC Annexin V for 5 minutes, followed by the addition of 5 μL PI for further incubation at room temperature for 10 minutes. Flow cytometry analysis (Millipore, guava easy Cyte) was used to measure fluorescence intensity, and data analysis was performed using Flow jo V10.

[7] = system: APP/PS1 transgenic mice; assay: Elevated plus maze (EPM); type: in vivo; conditions: B14 10, 20, 40 mg/kg i.p. every other day
Text: Five months old male APP/PS1 mice, weighing 25–33 g, were purchased from Guangdong Medical Laboratory Animal Center and housed in the Laboratory Animal Center of Sun Yat-sen University (Guangzhou, China) for experimentation. All procedures were approved by the Animal Care and Use Committee of Sun Yat-sen University and complied with legal requirements and national guidelines for the care and maintenance of laboratory animals (Approval No. SYSU-IACUC-2024-002032). The mice were housed in a specific pathogen-free environment with a controlled temperature of 22 ± 1 °C and a 12-h dark/light cycle. The mice were fed with a standard diet, and 30 mice were randomly divided into 6 groups (N = 5). Compound B14 was dissolved in saline and administered at doses of 10, 20, or 40 mg/kg. APP/PS1 male mice were grown until 6 months of age, and then injected intraperitoneally with compound B14 every other day for 60 days. Behavioral experiments were then conducted, and tissue specimens were collected for biochemical analysis.
The spatial memory and learning abilities of the mice were assessed using Morris water maze (MWM), novel object recognition (NOR) and nesting experiments (NBT). The anxiety and depressive behaviors were evaluated through the open field test (OFT) and elevated plus maze (EPM). Detailed experimental procedures are provided in the supplementary information. […]

## O=C(CCN1CCOCC1)Nc1ccc2c(c1)c(=O)c1cc(NC(=O)CCN3CCOCC3)ccc1n2-c1ccc2occc2c1 [Compound B14]
[1]
  binding: no
[2]
  pKd: 5.67
[3]
  ΔTm (CD melting): 11.26 °C
[4]
  TO displacement ratio: 27%
[5]
  TO displacement ratio: 1%
[6]
  apoptosis ratio: decreased in a dose-dependent manner
[7]
  number of entries into the open arm and retention time (EPM): significantly increased
